Converted amounts (≈) assume the structure as drawn.
How the values were obtained:
[1] = Solubility of levosimendan in phosphate buffer at room temperature; format: physicochemical; details: aqueous buffer
Procedure: (§1) At room temperature the solubility of levosimendan in phosphate buffer is 0.4 mg/ml (pH 7.4), 0.03 mg/ml (pH 6) and 0.02 mg/ml (pH 2). Thus, the water solubility of levosimendan decreases quite sharply when pH is lowered below neutral. […] Such solutions are chemically and physically stable over an extended period of time and, therefore, they are particularly suitable for pharmaceutical use.

[2] = pKa of levosimendan; format: physicochemical
Procedure: as §1

solubility ([1]; pH 2): 20 µg/mL (≈ 71.4 µM) | solubility ([1]; pH 6): 30 µg/mL (≈ 107 µM) | solubility ([1]; pH 7.4): 400 µg/mL (≈ 1430 µM) | pKa [2]: 6.26
Structure (SMILES): CC1CC(=O)NN=C1c1ccc(NN=C(C#N)C#N)cc1 (single isomer, unassigned; (-)) [levosimendan, (−)-[[4-(1,4,5,6-tetrahydro-4-methyl-6-oxo-3-pyridazinyl)phenyl]hydrazono]propanedinitrile]
